Laboratory results: patent US11382328B2, “Rapid drug discovery methods for pathogen inactivation” (priority 2019, dated 2022)
Where “and” joins values, the source holds several entries; their conditions need not be identical. Equal values may be shown once.

Tested on: E. coli strain W3110
Assay: Synergy assays: Biolog chemical sensitivity panels with Group IB metal, coefficient of drug interaction (CDI) from relative growth
Format: cell-based
Conditions: for CDI (coefficient of drug interaction), copper mixed with biocide: Copper (mM) section; for CDI (coefficient of drug interaction), gold + biocide: Gold (μM)
[1] = 1st of 3 copper concentrations (value not shown), 1st of four biocide concentrations
[2] = 1st of 3 copper concentrations (value not shown), 2nd of four biocide concentrations
[3] = 1st of 3 copper concentrations (value not shown), 3rd of four biocide concentrations
[4] = 1st of 3 copper concentrations (value not shown), 4th of four biocide concentrations
[5] = 2nd of 3 copper concentrations (value not shown), 1st of four biocide concentrations
[6] = 2nd of 3 copper concentrations (value not shown), 2nd of four biocide concentrations
[7] = 2nd of 3 copper concentrations (value not shown), 3rd of four biocide concentrations
[8] = 2nd of 3 copper concentrations (value not shown), 4th of four biocide concentrations
[9] = 3rd of 3 copper concentrations (value not shown), 2nd of four biocide concentrations
[10] = 3rd of 3 copper concentrations (value not shown), 3rd of four biocide concentrations
[11] = 3rd of 3 copper concentrations (value not shown), 4th of four biocide concentrations
[12] = Gold section of Table 5, first of three gold concentrations (μM, value not given), biocide concentration 1 of 4
[13] = Gold section of Table 5, first of three gold concentrations (μM, value not given), biocide concentration 2 of 4
[14] = Gold section of Table 5, first of three gold concentrations (μM, value not given), biocide concentration 4 of 4
[15] = Gold section of Table 5, second of three gold concentrations (μM, value not given), biocide concentration 2 of 4
[16] = Gold section of Table 5, second of three gold concentrations (μM, value not given), biocide concentration 3 of 4
[17] = Gold section of Table 5, second of three gold concentrations (μM, value not given), biocide concentration 4 of 4
[18] = Gold section of Table 5, third of three gold concentrations (μM, value not given), biocide concentration 1 of 4
[19] = Gold section of Table 5, third of three gold concentrations (μM, value not given), biocide concentration 2 of 4
[20] = Gold section of Table 5, third of three gold concentrations (μM, value not given), biocide concentration 3 of 4
[21] = Gold section of Table 5, third of three gold concentrations (μM, value not given), biocide concentration 4 of 4
[22] = Silver 0.5 μM, 1st of four biocide concentrations, E. coli
[23] = Silver 0.5 μM, 2nd of four biocide concentrations, E. coli
[24] = Silver 0.5 μM, 3rd of four biocide concentrations, E. coli
[25] = Silver 0.5 μM, 4th of four biocide concentrations, E. coli
[26] = Silver 1.0 μM, 1st of four biocide concentrations, E. coli
[27] = Silver 1.0 μM, 2nd of four biocide concentrations, E. coli
[28] = Silver 1.0 μM, 3rd of four biocide concentrations, E. coli
[29] = Silver 1.0 μM, 4th of four biocide concentrations, E. coli
[30] = Silver 5.0 μM, 3rd of four biocide concentrations, E. coli
[31] = Silver 5.0 μM, 4th of four biocide concentrations, E. coli

Substance: phleomycin
- CDI (coefficient of drug interaction), copper mixed with biocide [1]: 0.99
- CDI (coefficient of drug interaction), copper mixed with biocide [2]: 1.27
- CDI (coefficient of drug interaction), copper mixed with biocide [3]: Tox
- CDI (coefficient of drug interaction), copper mixed with biocide [4]: Tox
- CDI (coefficient of drug interaction), copper mixed with biocide [5]: 1.09
- CDI (coefficient of drug interaction), copper mixed with biocide [6]: 1.19
- CDI (coefficient of drug interaction), copper mixed with biocide [7]: Tox
- CDI (coefficient of drug interaction), copper mixed with biocide [8]: Tox
- CDI (coefficient of drug interaction), copper mixed with biocide (3rd of 3 copper concentrations (value not shown), 1st of four biocide concentrations): 0.99
- CDI (coefficient of drug interaction), copper mixed with biocide [9]: 0.96
- CDI (coefficient of drug interaction), copper mixed with biocide [10]: Tox
- CDI (coefficient of drug interaction), copper mixed with biocide [11]: Tox
- CDI (coefficient of drug interaction) [12]: 0.98
- CDI (coefficient of drug interaction) [13]: 1.06
- CDI (coefficient of drug interaction) [14]: 1.33
- CDI (coefficient of drug interaction) [15]: 1.03
- CDI (coefficient of drug interaction) [16]: 0.88
- CDI (coefficient of drug interaction) [17]: 0.87
- CDI (coefficient of drug interaction) [18]: 0.99
- CDI (coefficient of drug interaction) [19]: 0.96
- CDI (coefficient of drug interaction) [20]: 0.92
- CDI (coefficient of drug interaction) [21]: 1.29
- CDI (coefficient of drug interaction), silver + biocide [22]: 0.81
- CDI (coefficient of drug interaction), silver + biocide [23]: 0.61
- CDI (coefficient of drug interaction), silver + biocide [24]: 0.68
- CDI (coefficient of drug interaction), silver + biocide [25]: Tox
- CDI (coefficient of drug interaction), silver + biocide [26]: 0.89
- CDI (coefficient of drug interaction), silver + biocide [27]: 0.81
- CDI (coefficient of drug interaction), silver + biocide [28]: 0.81
- CDI (coefficient of drug interaction), silver + biocide [29]: Tox
- CDI (coefficient of drug interaction), silver + biocide (Silver 5.0 μM, 1st of four biocide concentrations, E. coli): 1.32
- CDI (coefficient of drug interaction), silver + biocide (Silver 5.0 μM, 2nd of four biocide concentrations, E. coli): 1.43
- CDI (coefficient of drug interaction), silver + biocide [30]: 1.37
- CDI (coefficient of drug interaction), silver + biocide [31]: Tox

Substance: poly-L-lysine
- CDI (coefficient of drug interaction), copper mixed with biocide [1]: 1.15
- CDI (coefficient of drug interaction), copper mixed with biocide [2]: 0.95
- CDI (coefficient of drug interaction), copper mixed with biocide [3]: Tox
- CDI (coefficient of drug interaction), copper mixed with biocide [4]: Tox
- CDI (coefficient of drug interaction), copper mixed with biocide [5]: 1.03
- CDI (coefficient of drug interaction), copper mixed with biocide [6]: 0.96
- CDI (coefficient of drug interaction), copper mixed with biocide [7]: Tox
- CDI (coefficient of drug interaction), copper mixed with biocide [8]: Tox
- CDI (coefficient of drug interaction), copper mixed with biocide [9]: 0.59
- CDI (coefficient of drug interaction), copper mixed with biocide [10]: Tox
- CDI (coefficient of drug interaction), copper mixed with biocide [11]: Tox
- CDI (coefficient of drug interaction) [12]: 1.07
- CDI (coefficient of drug interaction) [13]: 0.98
- CDI (coefficient of drug interaction) (Gold section of Table 5, first of three gold concentrations (μM, value not given), biocide concentration 3 of 4): Tox
- CDI (coefficient of drug interaction) [14]: Tox
- CDI (coefficient of drug interaction) (Gold section of Table 5, second of three gold concentrations (μM, value not given), biocide concentration 1 of 4): 1.08
- CDI (coefficient of drug interaction) [15]: 1.06
- CDI (coefficient of drug interaction) [16]: Tox
- CDI (coefficient of drug interaction) [17]: Tox
- CDI (coefficient of drug interaction) [18]: 0.93
- CDI (coefficient of drug interaction) [19]: 0.88
- CDI (coefficient of drug interaction) [20]: Tox
- CDI (coefficient of drug interaction) [21]: Tox
- CDI (coefficient of drug interaction), silver + biocide [22]: 0.92
- CDI (coefficient of drug interaction), silver + biocide [23]: 0.96
- CDI (coefficient of drug interaction), silver + biocide [24]: Tox
- CDI (coefficient of drug interaction), silver + biocide [25]: Tox
- CDI (coefficient of drug interaction), silver + biocide [26]: 0.88
- CDI (coefficient of drug interaction), silver + biocide [27]: 0.88
- CDI (coefficient of drug interaction), silver + biocide [28]: Tox
- CDI (coefficient of drug interaction), silver + biocide [29]: Tox
- CDI (coefficient of drug interaction), silver + biocide [30]: Tox
- CDI (coefficient of drug interaction), silver + biocide [31]: Tox

Substance: polymyxin B
- CDI (coefficient of drug interaction) (Copper (mM), 1st of 3 copper concentrations (head line not shown), biocide concentration 1 of 4, E. coli): 0.90
- CDI (coefficient of drug interaction) (Copper (mM), 1st of 3 copper concentrations (head line not shown), biocide concentration 3 of 4, E. coli): Tox
- CDI (coefficient of drug interaction) (Copper (mM), 1st of 3 copper concentrations (head line not shown), biocide concentration 4 of 4, E. coli): Tox
- CDI (coefficient of drug interaction) (Copper (mM), 2nd of 3 copper concentrations (head line not shown), biocide concentration 1 of 4, E. coli): 0.97 and 0.75
- CDI (coefficient of drug interaction) (Copper (mM), 2nd of 3 copper concentrations (head line not shown), biocide concentration 3 of 4, E. coli): Tox
- CDI (coefficient of drug interaction) (Copper (mM), 2nd of 3 copper concentrations (head line not shown), biocide concentration 4 of 4, E. coli): Tox
- CDI (coefficient of drug interaction) (Copper (mM), 3rd of 3 copper concentrations (head line not shown), biocide concentration 1 of 4, E. coli): 0.82 and 0.56
- CDI (coefficient of drug interaction) (Copper (mM), 3rd of 3 copper concentrations (head line not shown), biocide concentration 3 of 4, E. coli): Tox
- CDI (coefficient of drug interaction) (Copper (mM), 3rd of 3 copper concentrations (head line not shown), biocide concentration 4 of 4, E. coli): Tox
- CDI (coefficient of drug interaction), gold + biocide (first of 3 gold concentrations, biocide concentration 1 of 4): 1.07 and 0.97
- CDI (coefficient of drug interaction), gold + biocide (first of 3 gold concentrations, biocide concentration 4 of 4): Tox
- CDI (coefficient of drug interaction), gold + biocide (second of 3 gold concentrations, biocide concentration 1 of 4): 1.10 and 0.99
- CDI (coefficient of drug interaction), gold + biocide (second of 3 gold concentrations, biocide concentration 4 of 4): Tox
- CDI (coefficient of drug interaction), gold + biocide (third of 3 gold concentrations, biocide concentration 1 of 4): 1.00 and 0.92
- CDI (coefficient of drug interaction), gold + biocide (third of 3 gold concentrations, biocide concentration 4 of 4): Tox
- CDI (Silver 0.5 μM, biocide concentration 1 of 4): 1.37 and 0.79
- CDI (Silver 0.5 μM, biocide concentration 4 of 4): Tox
- CDI (Silver 1.0 μM, biocide concentration 1 of 4): 1.23 and 0.85
- CDI (Silver 1.0 μM, biocide concentration 4 of 4): Tox
- CDI (Silver 5.0 μM, biocide concentration 4 of 4): Tox
